Data from patent US6852698B2, “Free radical scavengers or promoters thereof as therapeutic adjuvants in preterm parturition” (priority 2000, dated 2005).

What was measured:
[1] = design: species or system mice; settings: mouse, in vivo
Method: We have experimentally investigated the transplacental passage of spin trapping compounds. Methodology: C57B16 mice were injected ip with 4 mmols/kg POBN [a-(4-pyridyl-1-oxide-N-t-butylnitrone)] on day 16 of pregnancy. Animals were sacrificed at different times after injection, 2-5 fetuses collected and lipids extracted as described by Brackett et al., 1989. Electron paramagnetic spectra were obtained in a Varian EPR spectrometer equipped with an X-band microwave bridge with center field set at 3376 Gauss and modulation frequency at 100 Hz. The extracts were examined before and after in vitro addition of a hydroxyl radical generating Fenton mixture (Fe^2++H2O2).

C57B16 inbred mice [2] = assay: Fetal outcome (viability) in LPS-injected pregnant mice; format: in vivo; settings: for Fetuses dead in utero: 16 h after LPS
Method: (§1) Animals and treatments: C57B16 inbred mice were housed together with CD57/BL6 males under regular light and dark cycles, with stable ambient temperature conditions. The next morning the females were examined for the presence of a vaginal plug. The day of detection of the vaginal plug was designated as day 0. On day 16 of pregnancy the pregnant mice were injected i.p. with either 10 μg lipopolysaccharide (LPS: from E Coli 0111.:B4 from Calbiochem) or saline (controls). N-Acetylcysteine 1 g/kg (NAC: which is a membrane permeable GSH precursor, Sigma, St. Louis Mo. and direct antioxidant) was given p.o. by gavage 30 min before and 2 h after the LPS injection. NAC was diluted in phosphate buffered saline (PBS). After 12 hours the animals were inspected hourly for signs of parturition (posture, bleeding). The time between LPS injection and delivery of the first pup was defined as latency. Fetal viability at birth was recorded after tactile stimulation of the pup. To separate between the effect of prematurity on the fetus and the in utero consequence of endotoxin administration on the fetus, animals were sacrificed at 3, 6 and 16 hours after endotoxin injection in a separate set of experiments.

extracellular O2− [3] = assay: Placental extracellular superoxide production (SOD-inhibitable NBT reduction); format: in vivo, mice
Method: Placental extracellular superoxide production: Placental extracellular superoxide production was determined by the SOD-inhibitable reduction of nitroblue tetrazolium. Briefly, after sacrifice duplicate placentas where incubated each in 1 ml 1 mg/ml nitroblue tetrazolium (NBT) diluted in PBS, for 1 h. in a CO2 incubator with humidified chamber at 37° C. The soluble yellow form of NBT is reduced by O2.^− generated within the tissue to form an insoluble precipitate of blue-purple formazan that discolorates the tissue. Extracellular O2.^− produces a discoloration of the incubation medium. The incubation was performed in the presence and absence of SOD. The difference in absorbance at 655 nm normalized by the dry weight of placenta between the average of the duplicates in the presence and absence of SOD represents the SOD-inhibitable O2.^− production and was expressed in normalized arbitrary units.

MMP-2 = assay: Gelatin zymography of medium from incubated human term amniochorionic membranes, MMP-2; format: cell-based
Source text: Tissues: Full thickness amniochorionic membranes were collected from seven patients without complications of pregnancy undergoing elective C-section at term. The fragment collected was selected from a region at least 10 cm away from the placenta. Immediately after collection, membranes were placed in minimum essential medium (MEM) (Gibco, Grand Island, N.Y.) on ice. Tissue samples were then cut under sterile conditions with a scalpel blade into smaller pieces of similar size. Over the next 30 min., the pieces of membranes were rinsed thoroughly with several changes of MEM and then sterile phosphate buffered saline (PBS) pH=7.8. Preweighed amounts of tissue (approximately 500 mg) consisting of several pieces selected at random were placed in a CO2 incubator with a humidified chamber at 37° C. for 24 hours. Incubations were carried out in a total volume of 2 ml buffer. Both wet weight and dry weight of tissue pieces were determined after incubation and after drying overnight at 60° C., respectively. After incubation the culture-conditioned medium was collected, briefly spun at 1000 g to remove cellular debris and loaded directly on gelatin gels. The concentration of protein in the aliquots of medium was measured with a BCA kit (Pierce, Rockford, Ill.). […]
SDS-Substrate gel electrophoresis (zymography): For detection of MMPs, equal volumes (15 μl) of conditioned medium (containing the activated MMPs) were mixed in a 1:3 ratio with substrate gel buffer (10% SDS, 4% sucrose, 0.25 M Tris-HCl, pH=6.8 and 0.1% bromphenol blue) and loaded directly onto gels without boiling (Raj agopalan et al., 1996 with modifications). […] In order to quantify the gelatinolytic activity of MMPs, the wet gel was scanned on a GS-670 Image Densitometer (Bio-Rad), and analyzed using Multianalyst v1.1 volume quantification system software (Bio-Rad). […]

MMP-9 = assay: Gelatin zymography of medium from incubated human term amniochorionic membranes, MMP-9; format: cell-based; settings: for Effect on the increase in MMP-9 induced by X/XO: X 2 mM + XO 20 mU/ml, SOD 500 U/ml
Source text: Tissues: Full thickness amniochorionic membranes were collected from seven patients without complications of pregnancy undergoing elective C-section at term. The fragment collected was selected from a region at least 10 cm away from the placenta. Immediately after collection, membranes were placed in minimum essential medium (MEM) (Gibco, Grand Island, N.Y.) on ice. Tissue samples were then cut under sterile conditions with a scalpel blade into smaller pieces of similar size. Over the next 30 min., the pieces of membranes were rinsed thoroughly with several changes of MEM and then sterile phosphate buffered saline (PBS) pH=7.8. Preweighed amounts of tissue (approximately 500 mg) consisting of several pieces selected at random were placed in a CO2 incubator with a humidified chamber at 37° C. for 24 hours. Incubations were carried out in a total volume of 2 ml buffer. Both wet weight and dry weight of tissue pieces were determined after incubation and after drying overnight at 60° C., respectively. After incubation the culture-conditioned medium was collected, briefly spun at 1000 g to remove cellular debris and loaded directly on gelatin gels. The concentration of protein in the aliquots of medium was measured with a BCA kit (Pierce, Rockford, Ill.).
Drugs and incubations: Incubations were performed in the presence of xanthine (X: 2 mM), xanthine oxidase (XO: 20 mU/ml), the combination xanthine+xanthine oxidase (X/XO), superoxide dismutase (SOD: 500 U/ml), X/XO/SOD, nitro-L-arginine (a nonspecific nitric oxide synthase inhibitor, LNA: 1 mM), X/XO/LNA, S-nitroso-N-acetyl penicillamine (a nitric oxide donor, SNAP 10 mM), X/XO/SNAP, N-acetyl cysteine (NAC: 0.1, 1, 10 mM), lipopolysaccharide (LPS 100 ng/ml). All chemicals were purchased from Sigma (St. Louis, Mo.) unless otherwise specified.
SDS-Substrate gel electrophoresis (zymography): For detection of MMPs, equal volumes (15 μl) of conditioned medium (containing the activated MMPs) were mixed in a 1:3 ratio with substrate gel buffer (10% SDS, 4% sucrose, 0.25 M Tris-HCl, pH=6.8 and 0.1% bromphenol blue) and loaded directly onto gels without boiling (Raj agopalan et al., 1996 with modifications). Briefly, type I gelatin was added to a standard Laemmli 10% acrylamide polymerization mixture at a final concentration of 1 mg/ml. Following electrophoresis, the proteins in the gel were renatured by exchanging SDS with Triton X-100 and the gels were incubated overnight at 37° C. in 50 mM TRIS-HCl, pH=7.4 containing 10 mM CaCl2 and 0.05% Brij 35. At the end of the incubation, the gels were stained with 0.5% Coomassie Blue R-250 (Bio-Rad, Hercules, Calif.) in 40% methanol/10% acetic acid, then destained in 40% methanol/10% acetic acid for 1 h. Proteins having gelatinolytic activity appeared as discrete translucent areas of lytic activity on an otherwise blue gel. When the gels are incubated in parallel with 0.01 M EDTA, disappearance of lytic bands confirms the metal dependence of MMP activity. Migration of proteins was compared with that of prestained broad molecular weight markers (Bio-Rad). Further, 10 ng/lane of zymography standards (recombinant MMP-2/MMP-9, Calbiochem, La Jolla, Calif.) were run along with the samples. In order to quantify the gelatinolytic activity of MMPs, the wet gel was scanned on a GS-670 Image Densitometer (Bio-Rad), and analyzed using Multianalyst v1.1 volume quantification system software (Bio-Rad). […]

[4] = tested on: superoxide anion in fetal membranes; assay: Nitroblue tetrazolium (formazan) assay of superoxide generation in fetal membranes; format: cell-based, human
Method: Intracellular superoxide anion generation: Pieces of fetal membranes were immersed in Krebs bicarbonate buffer (118 mM NaCl, 4.7 mM KCl, 1.18 MM MgSO4, 1.18 mM KH2PO4, 11.1 mM D-glucose, 0.016 mM EDTA, 2.2 mM CaCl2, 15.8 mM NaHCO3, pH=7.35−7.4) containing 1 mg/ml nitroblue tetrazolium (NBT), for 180 min. in the CO2 incubator with humidified chamber at 37° C. The soluble yellow form of NBT is reducedby O2.^− generated within the tissue to form an insoluble precipitate of blue-purple formazan. After incubation, the fetal membranes were washed in saline, photographed, placed in 4% formaldehyde and kept overnight in a refrigerator. Specimens were then embedded in OCT Tissue Tek embedding medium (Fisher Scientific, Pittsburgh, Pa.) and frozen in liquid nitrogen. The frozen specimens were cut by cryostat into 20 μm sections, mounted onto electrostatically treated-glass slides (Fisherbrand Superfrost Plus, Fisher Scientific) and counterstained with Neutral Red. They were immediately investigated by light microscopy using a Nikon Eclipse E1000M microscope connected to an MTI DC330 3CCD Color Camera (Dage MTI Inc., Michigan City, Mich.).

C57B16 inbred mice [5] = assay: Timing of birth (latency) in LPS-injected pregnant mice; format: in vivo
Method: as §1, with “N-Acetylcysteine 1 g/kg (NAC: which is a membrane permeable GSH precursor, Sigma, St. Louis Mo. and direct antioxidant) was given p.o. by gavage 30 min before and 2 h after the LPS injection.” left out

glutathione = assay: Total glutathione in maternal and fetal livers; format: in vivo, mice; settings: 16 h
Method: Measurement of total glutathione: Glutathione content was measured in maternal and fetal livers of animals treated with and without NAC and sacrificed at 3, 6 and 16 hours after LPS injection. Fetal livers were pooled from all fetuses of each pregnant animal, snap frozen in liquid nitrogen and stored at −80° C. until assayed. Briefly, the frozen tissue was rapidly homogenized in 7.5% trichloroacetic acid in a ratio of 1:20 (w/v). The homogenate was centrifuged at 3000 g for 10 min at 4° C. Total glutathione content was assayed in the supernatant by a colorimetric reaction that involves the formation of a chromophoric thione (Bioxytech GSH-420, Oxis Health Products, Portland, Oreg.) and was expressed in μg/ml by using oxidized glutathione standards and further normalized by the total protein content of the pellet. The protein pellet was solubilized in 0.1 N NaOH and its protein content was estimated using a BCA protein assay kit (Pierce, Rockford, Ill.).

extracellular O2− [6] = assay: Cytochrome c reduction assay of the X/XO reaction; format: biochemical; settings: SOD 500 U/ml
Method: Extracellular superoxide anion generation: O2^− was generated enzymatically from the reaction between 2 mM xanthine (X) and 20 mU/ml xanthine oxidase (XO), as described by McCord and Fridovich (1969). Though these amounts are larger than those routinely used for in vitro generation of O2^− in cell-free experiments, we have based our decision on the presence of both XO and SOD in fetal membranes (Telfer et al., 1997) and on our assumption that the expression of these enzymes will change the efficiency of the X/XO reaction. As a result we monitored the efficiency of the X/XO reaction in our experimental setting by a cytochrome c assay, both in tissue-free conditions as well as in the presence of the tissue (Babior et al., 1973).

[7] = 10 mM NAC, 24 h incubation of human term fetal membranes
[8] = NAC 10 mM, human fetal membranes
[9] = addition of SOD, 3 hour incubation with NBT
[10] = SNAP 10 mM, LNA 1 mM, data not shown

For `CC(C)(C)[N+]([O-])=Cc1cc[n+]([O-])cc1` [POBN, a-(4-pyridyl-1-oxide-N-t-butylnitrone)], the “Additional difference in magnitude of the EPR signal, fetus 6 h vs maternal liver 1 h or fetus 1 h” value [1] was 10 fold.

With lipopolysaccharide [LPS] the “Fetuses dead in utero” value (C57B16 inbred mice [2]; LPS group without NAC) was 63%, the Vaginal stillbirth rate (C57B16 inbred mice [2]; LPS group without NAC) was 100% and the “Increase in extracellular O2− production in placentas” value (extracellular O2− [3]; LPS-injected animals at 3 hours) was 2.7 fold.

With `CC(=O)N[C@@H](CS)C(=O)O` [NAC, N-acetylcysteine] the “MMP-2 activity, % of the levels from the CRL tissue” value (MMP-2; [7]) was 20%, the “Effect on MMP-2 in the presence and absence of LPS” value (MMP-2; [8]) was “dramatically inhibited” and the “MMP-9 activity, % of the levels from the CRL tissue” value (MMP-9; [7]) was 20%. For the same molecule, the “Effect on MMP-9 in the presence and absence of LPS” value (MMP-9; [8]) was “dramatically inhibited”, the “Effect on the increase in MMP-9 induced by X/XO” value (MMP-9; human fetal membranes) was “prevented the increase in MMP-9” and the “Formazan formation in the incubated tissue (macroscopic)” value ([4]; NAC 10 mM, 3 hour incubation with NBT) was “completely abolished”. For the same molecule, the “Formazan deposits by light microscopy (intracellular O2− formation)” value ([4]; tissues exposed to NAC) was “no formazan deposits”, the “Latency compared statistically with CRL and LPS groups” value (C57B16 inbred mice [5]; LPS plus NAC) was “no longer different from either CRL or LPS animals” and the “Latency period (LPS injection until delivery)” value (C57B16 inbred mice [5]; LPS plus two doses of 1 mg/kg NAC per os, 1 h before and 2 h after LPS, n=12) was 35.13 ± 6.41 h. For the same molecule, the “Kaplan-Maier survival analysis of cumulative birth rates” value (C57B16 inbred mice [5]; LPS-injected mice with or without NAC) was “did not reveal a significant NAC effect”, the “Time of delivery after saline injection” value (C57B16 inbred mice [5]; NAC alone, no LPS, n=7) was 67.71 ± 5.8 h and the “Fetuses dead in utero” value (C57B16 inbred mice [2]; group that received LPS plus NAC, p=0.006 vs LPS group) was 37%. For the same molecule, the “Proportion of pups born alive” value (C57B16 inbred mice [2]; mice given NAC before and after LPS) was “statistically significant increase”, the “Effect on the LPS-induced increase in placental extracellular O2− production” value (extracellular O2− [3]; LPS plus NAC, 3 hours) was “not seen” and the “Maternal liver GSH” value (glutathione; LPS-treated pregnant mice, NAC p.o.) was “prevented the decrease”. The “Fetal liver GSH content” value (glutathione; fetuses of LPS-injected mice, maternal NAC p.o.) was “not different from either CRL or LPS”.

In the case of superoxide dismutase [SOD], the “Effect on the increase in MMP-9 induced by X/XO” value (MMP-9; human fetal membranes) was “reversed”, the “Change in absorbance at 550 nm (cytochrome c reduction by X/XO)” value (extracellular O2− [6]) was “completely inhibited” and the “Extracellular formazan formation induced by X/XO” value [4, 9] was “inhibited completely”. The “Intracellular formazan formation induced by X/XO” value [4, 9] was “only partially”.

With `CC(=O)N[C@H](C(=O)O)C(C)(C)SN=O` [SNAP, S-nitroso-N-acetyl penicillamine] the “Effect on fetal membrane MMP activity (MMP-2)” value (MMP-2; [10]) was “nor the NO donor SNAP had any significant effect” and the “Effect on fetal membrane MMP activity (MMP-9)” value (MMP-9; [10]) was “nor the NO donor SNAP had any significant effect”.
